Source: ChEMBL document CHEMBL1127007, “Quinazolinones 2: QSAR and in vivo characterization of AT1 selective AII antagonists” (Bioorg Med Chem Lett, 1993)
Values joined by “and” are separate entries in the source; they are usually repeats but may differ in a detail not shown here. Identical values can stand only once.

Legend:
Rattus norvegicus [1] = test: Compound was evaluated in vivo for inhibition of the AII pressor response in normotensive rat at dose 1 mg/kg, p.o. after >5 hour; assay type: functional; conditions: route oral
[2] = target: Angiotensin II receptor (Rattus norvegicus) (UniProt P29089+P25095+P35351); test: Duration of action as time for pressor response to fall below 30% for a single bolus by intravenous dose; assay type: functional, organism-based
Rattus norvegicus [3] = test: Compound was evaluated in vivo for inhibition of the AII pressor response in normotensive rat at dose 1 mg/kg, iv after >6 hour; assay type: functional
Rattus norvegicus [4] = test: Compound was evaluated in vivo for inhibition of the AII pressor response in normotensive rat at dose 0.03 mg/kg, iv; assay type: functional
Rattus norvegicus [5] = test: Compound was evaluated in vivo for inhibition of the AII pressor response in normotensive rat at dose 0.03 mg/kg, po; assay type: functional
Rattus norvegicus [6] = test: Compound was evaluated in vivo for inhibition of the AII pressor response in normotensive rat at dose 0.1 mg/kg, p.o. after >3 hour; assay type: functional; conditions: route oral
Rattus norvegicus [7] = test: The duration of action is expressed as the time for the % inhibition of pressor response to fall below 30% for a single bolus of the drug administered perorally.; assay type: functional
Rattus norvegicus [8] = test: Compound was evaluated in vivo for inhibition of the AII pressor response in normotensive rat at dose 0.1 mg/kg, iv after 2.5 hour; assay type: functional
Rattus norvegicus [9] = test: Compound was evaluated in vivo for inhibition of the AII pressor response in normotensive rat at dose 0.3 mg/kg, p.o. after >3.5 hour; assay type: functional; conditions: route oral
Rattus norvegicus [10] = test: Compound was evaluated in vivo for inhibition of the AII pressor response in normotensive rat at dose 0.3 mg/kg, iv after 4 hour; assay type: functional
[11] = target: T1, Type-2 angiotensin II receptor (Homo sapiens) (UniProt P50052); test: In vitro antagonist activity against the Angiotensin II (type 2) receptor.; assay type: functional
T1 sequence (whole entry): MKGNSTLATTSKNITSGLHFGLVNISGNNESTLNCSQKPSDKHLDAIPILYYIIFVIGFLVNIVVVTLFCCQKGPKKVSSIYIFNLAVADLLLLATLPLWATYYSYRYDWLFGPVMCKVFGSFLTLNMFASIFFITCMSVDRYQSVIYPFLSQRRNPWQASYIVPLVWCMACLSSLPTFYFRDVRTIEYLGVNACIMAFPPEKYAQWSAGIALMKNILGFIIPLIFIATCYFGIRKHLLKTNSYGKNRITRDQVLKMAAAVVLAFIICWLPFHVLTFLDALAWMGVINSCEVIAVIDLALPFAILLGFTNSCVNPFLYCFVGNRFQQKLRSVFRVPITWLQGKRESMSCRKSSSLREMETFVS

[12] = target: T2, Type-1 angiotensin II receptor (Oryctolagus cuniculus, UniProt P34976); test: Ability to displace [125I]Sar1-Ile8-AII from angiotensin II receptor, type 1 in rabbit aorta in presence of 0.2% bovine serum albumin (BSA) was determined in vitro; assay type: tissue-based
T2 sequence (P34976 whole entry): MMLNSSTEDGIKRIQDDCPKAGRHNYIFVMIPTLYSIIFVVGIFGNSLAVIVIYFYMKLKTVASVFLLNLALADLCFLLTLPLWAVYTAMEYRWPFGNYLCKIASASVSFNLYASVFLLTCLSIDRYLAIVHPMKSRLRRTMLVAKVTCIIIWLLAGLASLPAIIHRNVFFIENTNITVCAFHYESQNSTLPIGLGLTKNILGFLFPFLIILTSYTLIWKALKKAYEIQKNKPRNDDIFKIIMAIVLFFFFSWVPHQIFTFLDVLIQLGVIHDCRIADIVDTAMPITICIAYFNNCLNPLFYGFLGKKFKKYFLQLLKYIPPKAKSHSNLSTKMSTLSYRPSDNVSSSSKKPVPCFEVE

Rattus norvegicus [13] = test: Compound was evaluated in vivo for inhibition of the AII pressor response in normotensive rat at dose 1 mg/kg, iv after 0.2 hour; assay type: functional
Rattus norvegicus [14] = test: Compound was evaluated in vivo for inhibition of the AII pressor response in normotensive rat at dose 3 mg/kg, iv after 2.5 hour; assay type: functional
Rattus norvegicus [15] = test: Compound was evaluated in vivo for inhibition of the AII pressor response in normotensive rat at dose 1 mg/kg, iv; assay type: functional
Rattus norvegicus [16] = test: Compound was evaluated in vivo for inhibition of the AII pressor response in normotensive rat at dose 3 mg/kg, p.o. after 4.2 hour; assay type: functional; conditions: route oral
[17] = target: T2, Type-1 angiotensin II receptor; test: Displacement of [125I]Sar1-Ile8-AII (without BSA) from type 1 Angiotensin II receptor of rabbit aorta; assay type: tissue-based
Rattus norvegicus [18] = test: Compound was evaluated in vivo for inhibition of the AII pressor response in normotensive rat at dose 1 mg/kg, iv after 1.8 hour; assay type: functional
Rattus norvegicus [19] = test: Compound was evaluated in vivo for inhibition of the AII pressor response in normotensive rat at dose 1 mg/kg, iv after 0.3 hour; assay type: functional
Rattus norvegicus [20] = test: Compound was evaluated in vivo for inhibition of the AII pressor response in normotensive rat at dose 3 mg/kg, p.o. after >6 hour; assay type: functional; conditions: route oral
Rattus norvegicus [21] = test: Compound was evaluated in vivo for inhibition of the AII pressor response in normotensive rat at dose 3 mg/kg, iv after >6 hour; assay type: functional
Rattus norvegicus [22] = test: Compound was evaluated in vivo for inhibition of the AII pressor response in normotensive rat at dose 1 mg/kg, iv after 1 hour; assay type: functional
Rattus norvegicus [23] = test: Compound was evaluated in vivo for inhibition of the AII pressor response in normotensive rat at dose 0.3 mg/kg, iv; assay type: functional

SMILES: CCCCc1nc2ccc(NC(=O)N(C)C(C)C)cc2c(=O)n1Cc1ccc(-c2ccccc2-c2nn[nH]n2)cc1
- inhibition in vivo at 1 mg/kg (Rattus norvegicus [1]): 84%
- Duration [2]: > 6 h and 4 h and 2.5 h
- inhibition in vivo at 1 mg/kg (Rattus norvegicus [3]): 94%
- inhibition in vivo at 0.03 mg/kg (Rattus norvegicus [4]): 15%
- inhibition in vivo at 0.03 mg/kg (Rattus norvegicus [5]): 16%
- inhibition in vivo at 0.1 mg/kg (Rattus norvegicus [6]): 58%
- Duration (Rattus norvegicus [7]): >5 h and >3.5 h and >3 h
- inhibition in vivo at 0.1 mg/kg (Rattus norvegicus [8]): 85%
- inhibition in vivo at 0.3 mg/kg (Rattus norvegicus [9]): 80%
- inhibition in vivo at 0.3 mg/kg (Rattus norvegicus [10]): 96%
- Activity [11]: > 1000 nM

SMILES: CCCCc1nc2ccc(CC)cc2c(=O)n1Cc1ccc(-c2ccccc2-c2nnn[nH]2)cc1
- IC50 [12]: 4 nM

SMILES: CCCCc1nc2cc(OC)c(OC)cc2c(=O)n1Cc1ccc(-c2ccccc2-c2nn[nH]n2)cc1
- Duration [2]: 0.2 h
- inhibition in vivo at 1 mg/kg (Rattus norvegicus [13]): 30%
- Activity [11]: > 1000 nM

SMILES: CCCCc1nc2ccc(C)cc2c(=O)n1Cc1ccc(-c2ccccc2-c2nn[nH]n2)cc1
- Duration (Rattus norvegicus [7]): 4.2 h
- inhibition in vivo at 3 mg/kg (Rattus norvegicus [14]): 76%
- inhibition in vivo at 1 mg/kg (Rattus norvegicus [15]): 28%
- inhibition in vivo at 3 mg/kg (Rattus norvegicus [16]): 64%
- Activity [11]: > 1000 nM

SMILES: CCCCC(=O)Nc1ccc2nc(CCCC)n(Cc3ccc(-c4ccccc4-c4nnn[nH]4)cc3)c(=O)c2c1
- IC50 [17]: 8.9 nM

SMILES: CCCCc1nc2ccc(NC(=O)OCC(C)C)cc2c(=O)n1Cc1ccc(-c2ccccc2-c2nnn[nH]2)cc1
- IC50 [12]: 6.4 nM
- IC50 [17]: 1.6 nM

SMILES: CCCCc1nc2ccc([S+](C)[O-])cc2c(=O)n1Cc1ccc(-c2ccccc2-c2nn[nH]n2)cc1 (centres undefined)
- Duration [2]: 1.8 h
- IC50 [12]: 1 nM
- IC50 [17]: 0.9 nM
- inhibition in vivo at 1 mg/kg (Rattus norvegicus [18]): 89%
- Activity [11]: > 1000 nM

SMILES: CCCCc1nc2ccc(N(C)C(=O)OCc3ccccc3)cc2c(=O)n1Cc1ccc(-c2ccccc2-c2nnn[nH]2)cc1
- IC50 [12]: 0.83 nM

SMILES: CCCCc1nc2ccc(NC)cc2c(=O)n1Cc1ccc(-c2ccccc2-c2nnn[nH]2)cc1
- IC50 [12]: 2 nM

SMILES: CCCCc1nc2ccc(C(C)C)cc2c(=O)n1Cc1ccc(-c2ccccc2-c2nn[nH]n2)cc1
- IC50 [12]: 5 nM
- IC50 [17]: 4 nM
- inhibition in vivo at 1 mg/kg (Rattus norvegicus [19]): 34%
- inhibition in vivo at 3 mg/kg (Rattus norvegicus [20]): 72%
- inhibition in vivo at 3 mg/kg (Rattus norvegicus [21]): 90%
- Duration (Rattus norvegicus [7]): >6 h
- Activity [11]: > 1000 nM

SMILES: Nc1ccc2nc(-c3ccc(-c4ccccc4C(=O)O)cc3)n(Cc3ccc(-c4ccccc4-c4nn[nH]n4)cc3)c(=O)c2c1
- IC50 [12]: 33 nM

SMILES: Cc1ccc2nc(-c3ccc(-c4ccccc4C(=O)O)cc3)n(Cc3ccc(-c4ccccc4-c4nn[nH]n4)cc3)c(=O)c2c1
- IC50 [12]: 92 nM

SMILES: CCCCc1nc2ccc(NC(=O)OCc3ccccc3)cc2c(=O)n1Cc1ccc(-c2ccccc2-c2nn[nH]n2)cc1
- Duration [2]: 1 h
- IC50 [12]: 4.3 nM
- inhibition in vivo at 1 mg/kg (Rattus norvegicus [22]): 84%
- Activity [11]: > 1000 nM

SMILES: CCCCc1nc2ccc(C)cc2c(=O)n1Cc1ccc(-c2ccccc2-c2nnn[nH]2)cc1
- IC50 [17]: 1.1 nM

SMILES: CCCCc1nc2ccc(NS(=O)(=O)C(F)(F)F)cc2c(=O)n1Cc1ccc(-c2ccccc2-c2nn[nH]n2)cc1
- IC50 [12]: 120 nM

SMILES: CCCCc1nc2ccc(OC(=O)NC(C)C)cc2c(=O)n1Cc1ccc(-c2ccccc2-c2nn[nH]n2)cc1
- Duration [2]: 0 h
- inhibition in vivo at 0.3 mg/kg (Rattus norvegicus [23]): 30%
- IC50 [12]: 1 nM
- Activity [11]: > 1000 nM
